Assay results taken from patent EP0416740A2, “Novel compounds with renin-inhibiting activity” (Beecham Group p.l.c., priority 1989, dated 1991).
Where a name gives a salt, the structure may show the parent alone.

What follows are compounds tested against T1, human renin (Homo sapiens, UniProt P00797) (assay: biochemical). Settings: not given.
T1 construct: from tissue; host or cells: human plasma from blood of healthy volunteers
T1 sequence (P00797 67-406): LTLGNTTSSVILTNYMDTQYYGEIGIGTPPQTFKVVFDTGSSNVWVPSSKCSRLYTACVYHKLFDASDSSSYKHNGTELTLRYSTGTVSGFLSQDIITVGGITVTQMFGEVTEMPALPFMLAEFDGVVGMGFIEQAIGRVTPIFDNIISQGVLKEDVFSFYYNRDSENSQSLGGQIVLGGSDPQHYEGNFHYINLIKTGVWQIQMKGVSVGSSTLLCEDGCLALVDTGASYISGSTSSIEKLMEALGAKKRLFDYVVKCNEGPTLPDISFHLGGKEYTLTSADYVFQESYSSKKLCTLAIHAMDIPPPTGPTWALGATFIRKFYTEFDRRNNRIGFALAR
Method: In vitro human renin inhibition
Renin inhibitory activity was estimated as the percentage change in renin activity in human plasma in the presence and absence of compound. The source of plasma was blood taken from healthy volunteers. Renin activity was defined by the difference in angiotensin I levels between two halves of a sample, one incubated at 37^o and the other at 4^o for 2 h. Angiotensin I levels were measured using a ¹²⁵I- angiotensin I radioimmunoassay kit (NEN/Dupont, Stevenage). Results were calculated as the mean of at least two, duplicate determinations and IC₅₀ values were calculated by linear regression analysis of at least three concentrations of compound.
In the case of `CC(C)CNC(=O)C[C@H](O)[C@H](CC1CCCCC1)NC(=O)[C@H](CC(C)C)NC(=O)[C@H](Cc1ccccc1)NC(=O)CC1COc2ccc[n+]([O-])c21` (stereo partly drawn) [Example E2, 2,3-Dihydro-4-oxofuro[3,2-]pyridine-3-acetyl-Phe-Leu-ACHPA isobutylamide], the IC50 is reported as 21 nM.

Same assay, conditions: renin activity in human plasma; angiotensin I difference between halves incubated at 37° and 4° for 2 h; linear regression of at least three concentrations; read-out: IC₅₀
Work on `CC(C)C[C@H](NC(=O)[C@H](Cc1ccccc1)NC(=O)CCN1C(=O)COc2cccnc21)C(=O)N[C@@H](CC1CCCCC1)[C@@H](O)CC(=O)NCCCn1ccnc1` [Example E3, 2,3-Dihydro-3-oxo-4H-pyrido[3,2-b]-1,4-oxazine-4-propanoyl-Phe-Leu-ACHPA 3-(1-imidazolyl)propylamide .0.5(CHCl₃)] yielded an IC50 of 26 nM.
Work on `CC(C)C[C@H](NC(=O)[C@H](Cc1ccccc1)NC(=O)CCN1C(=O)CSc2ccncc21)C(=O)N[C@@H](CC1CCCCC1)[C@@H](O)CC(=O)NCCCn1ccnc1` [Example E4, 2,3-Dihydro-3-oxo-4H-pyrido[4,3-b]-1,4-thiazine-4-propanoyl-Phe-Leu-ACHPA 3-(1-imidazolyl)propylamide] yielded an IC50 of 4 nM.
Work on `CC(C)C[C@H](NC(=O)[C@H](Cc1ccccc1)NC(=O)CCN1C(=O)CSc2ncccc21)C(=O)N[C@@H](CC1CCCCC1)[C@@H](O)CC(=O)NCCCn1ccnc1` [Example E10, 2,3-Dihydro-3-oxo-4H-pyrido[2,3-b]-1,4-thiazine-4-propanoyl-Phe-Leu-ACHPA 3-(1-imidazolyl)propylamide .HCl] yielded an IC50 of 6 nM.
With `CC(C)C[C@H](NC(=O)[C@H](Cc1ccccc1)NC(=O)CCN1C(=O)CS(=O)(=O)c2ncccc21)C(=O)N[C@@H](CC1CCCCC1)[C@@H](O)CC(=O)NCCCn1ccnc1` [Example E11, 2,3-Dihydro-1,1,3-trioxo-4H-pyrido[2,3-b]-1,4-thiazine-4-propanoyl-Phe-Leu-ACHPA 3-(1-imidazolyl)propylamide .HCl.1.5H₂O] the IC50 was 12 nM.
`CC(C)C[C@H](NC(=O)[C@H](Cc1ccccc1)NC(=O)CCCN1Cc2ccncc2C1=O)C(=O)N[C@@H](CC1CCCCC1)[C@@H](O)CC(=O)NCCCn1ccnc1` [Example E14, 6,7-Dihydro-5H-7-oxo-pyrrolo[3,4-c]pyridine-6-butanoyl-Phe-Leu-ACHPA 3-(1-imidazolyl)propylamide.2HCl] showed an IC50 of 14 nM.
